Results taken from ChEMBL document CHEMBL1201861, “Genomics of Drug Sensitity in Cancer screening data, Wellcome Trust Sanger Institute”.

Key:
LP-1 = test: cells; format: functional, cell-based; details: Homo sapiens;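 note: growth inhibition of human LP-1 cells, with the read-out taken from a cell viability assay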
Description: SANGER: Inhibition of human LP-1 cell growth in a cell viability assay.

NCI-H1703 = test: cells; format: functional, cell-based, Homo sapiens; details: Homo sapiens, NCI-H1703;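 note: growth inhibition of NCI-H1703 cells, read out via a cell viability assay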
Description: SANGER: Inhibition of human NCI-H1703 cell growth in a cell viability assay.

HCT-15 = test: cells; format: functional, cell-based, Homo sapiens; details: Homo sapiens, HCT-15;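 note: cell viability readout, IC50 reflecting suppression of HCT-15 cell growth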
Description: SANGER: Inhibition of human HCT-15 cell growth in a cell viability assay.

GDM-1 = test: cells; format: functional, cell-based; details: Homo sapiens;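 note: cell viability readout used to measure growth inhibition of human GDM-1 cells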
Description: SANGER: Inhibition of human GDM-1 cell growth in a cell viability assay.

MDA-MB-134-VI = test: cells; format: functional, cell-based; details: Homo sapiens
Description: SANGER: Inhibition of human MDA-MB-134-VI cell growth in a cell viability assay.

NCI-H1618 = test: cells; format: functional, cell-based; details: Homo sapiens;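 note: growth inhibition of human NCI-H1618 cells, measured by a cell viability assay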
Description: SANGER: Inhibition of human NCI-H1618 cell growth in a cell viability assay.

MC-CAR = test: cells; format: functional, cell-based; details: Homo sapiens;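 note: growth inhibition of the human MC-CAR cell line, read out by a cell viability assay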
Description: SANGER: Inhibition of human MC-CAR cell growth in a cell viability assay.

NCI-H838 = test: cells; format: functional, cell-based; details: Homo sapiens;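 note: growth inhibition of human NCI-H838 cells, read out by a cell viability assay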
Description: SANGER: Inhibition of human NCI-H838 cell growth in a cell viability assay.

TT = test: cells; format: functional, cell-based; details: Homo sapiens
Description: SANGER: Inhibition of human TT cell growth in a cell viability assay.

ST486 = test: SANGER: Inhibition of human ST486 cell growth in a cell viability assay.; format: functional, cell-based
MFE-296 = test: SANGER: Inhibition of human MFE-296 cell growth in a cell viability assay.; format: functional, cell-based
MEL-JUSO = test: cells; format: functional, cell-based, Homo sapiens; details: Homo sapiens, MEL-JUSO;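 note: growth inhibition of human MEL-JUSO cells, read out with a cell viability assay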
Description: SANGER: Inhibition of human MEL-JUSO cell growth in a cell viability assay.

Raji = test: cells; format: functional, cell-based; details: Homo sapiens;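 note: cell viability assay measuring inhibition of Raji cell growth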
Description: SANGER: Inhibition of human Raji cell growth in a cell viability assay.

SK-CO-1 = test: cells; format: functional, cell-based; details: Homo sapiens;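 note: growth inhibition of SK-CO-1 cells, determined by a viability readout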
Description: SANGER: Inhibition of human SK-CO-1 cell growth in a cell viability assay.

CCF-STTG1 = test: cells; format: functional, cell-based; details: Homo sapiens;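 note: growth inhibition of human CCF-STTG1 cells, determined with a cell viability read-out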
Description: SANGER: Inhibition of human CCF-STTG1 cell growth in a cell viability assay.

BL-70 = test: SANGER: Inhibition of human BL-70 cell growth in a cell viability assay.; format: functional, cell-based
RL = test: cells; format: functional, cell-based; details: Homo sapiens
Description: SANGER: Inhibition of human RL cell growth in a cell viability assay.

IPC-298 = test: SANGER: Inhibition of human IPC-298 cell growth in a cell viability assay.; format: functional, cell-based
YT = test: cells; format: functional, cell-based; details: Homo sapiens
Description: SANGER: Inhibition of human YT cell growth in a cell viability assay.

PLC-PRF-5 = test: cells; format: functional, cell-based; details: Homo sapiens;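 note: growth inhibition of human PLC-PRF-5 cells, read out with a viability assay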
Description: SANGER: Inhibition of human PLC-PRF-5 cell growth in a cell viability assay.

RT-4 = test: SANGER: Inhibition of human RT4 cell growth in a cell viability assay.; format: functional, cell-based; details: Homo sapiens, RT-4
HT55 = test: cells; format: functional, cell-based, Homo sapiens; details: Homo sapiens, HT55;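 note: cell viability readout measuring growth inhibition of human HT55 cells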
Description: SANGER: Inhibition of human HT55 cell growth in a cell viability assay.

BOKU = test: cells; format: functional, cell-based; details: Homo sapiens;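 note: growth inhibition of the human BOKU cell line, read out by a cell viability assay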
Description: SANGER: Inhibition of human BOKU cell growth in a cell viability assay.

SNU-475 = test: cells; format: functional, cell-based; details: Homo sapiens
Description: SANGER: Inhibition of human SNU-475 cell growth in a cell viability assay.

TUR = test: cells; format: functional, cell-based; details: Homo sapiens;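 note: growth inhibition of human TUR cells, read out with a cell viability assay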
Description: SANGER: Inhibition of human TUR cell growth in a cell viability assay.

KMS-12-PE = test: cells; format: functional, cell-based; details: Homo sapiens;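 note: growth inhibition of human KMS-12-PE cells, measured with a cell viability assay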
Description: SANGER: Inhibition of human KMS-12-PE cell growth in a cell viability assay.

DV-90 = test: cells; format: functional, cell-based; details: Homo sapiens;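 note: Read-out is a viability assay, with IC50 reflecting the drop in DV-90 cell growth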
Description: SANGER: Inhibition of human DV-90 cell growth in a cell viability assay.

HCC1143 = test: cells; format: functional, cell-based; details: Homo sapiens;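 note: growth inhibition of human HCC1143 cells, read out with a cell viability assay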
Description: SANGER: Inhibition of human HCC1143 cell growth in a cell viability assay.

DG-75 = test: cells; format: functional, cell-based; details: Homo sapiens;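 note: growth inhibition of DG-75 cells, read out with a cell viability assay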
Description: SANGER: Inhibition of human DG-75 cell growth in a cell viability assay.

EVSA-T = test: cells; format: functional, cell-based, Homo sapiens; details: Homo sapiens, EVSA-T;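 note: growth inhibition of EVSA-T cells, read out with a cell viability assay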
Description: SANGER: Inhibition of human EVSA-T cell growth in a cell viability assay.

LC4-1 = test: cells; format: functional, cell-based; details: Homo sapiens;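 note: growth inhibition of LC4-1 cells, read out with a cell viability assay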
Description: SANGER: Inhibition of human LC4-1 cell growth in a cell viability assay.

EW-7 = test: SANGER: Inhibition of human EW-7 cell growth in a cell viability assay.; format: functional, cell-based; details: Homo sapiens, EW-7
NCI-H1734 = test: cells; format: functional, cell-based; details: Homo sapiens;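 note: growth inhibition of human NCI-H1734 cells, read out with a cell viability assay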
Description: SANGER: Inhibition of human NCI-H1734 cell growth in a cell viability assay.

SNG-M = test: cells; format: functional, cell-based; details: Homo sapiens
Description: SANGER: Inhibition of human SNG-M cell growth in a cell viability assay.

G-361 = test: cells; format: functional, cell-based, Homo sapiens; details: Homo sapiens, G-361
NCI-H2081 = test: cells; format: functional, cell-based; details: Homo sapiens;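 note: growth inhibition of human NCI-H2081 cells, read out with a cell viability assay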
Description: SANGER: Inhibition of human NCI-H2081 cell growth in a cell viability assay.

Caov-3 cell line = test: cells; format: functional, cell-based; details: Homo sapiens;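 note: cell growth inhibition read out by a viability assay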
Description: SANGER: Inhibition of human Caov-3 cell growth in a cell viability assay.

NCI-H460 = test: cells; format: functional, cell-based, Homo sapiens; details: Homo sapiens, NCI-H460;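 note: cell viability assay scoring growth inhibition of human NCI-H460 cells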
Description: SANGER: Inhibition of human NCI-H460 cell growth in a cell viability assay.

OPM-2 = test: cells; format: functional, cell-based; details: Homo sapiens;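 note: growth of OPM-2 cells measured with a viability assay, IC50 for suppression of proliferation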
Description: SANGER: Inhibition of human OPM-2 cell growth in a cell viability assay.

ECC4 = test: cells; format: functional, cell-based; details: Homo sapiens;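 note: growth inhibition of ECC4 cells, read out with a cell viability assay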
Description: SANGER: Inhibition of human ECC4 cell growth in a cell viability assay.

Daudi = test: cells; format: functional, cell-based; details: Homo sapiens;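 note: growth inhibition of Daudi cells, read out by a viability assay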
Description: SANGER: Inhibition of human Daudi cell growth in a cell viability assay.

EHEB = test: cells; format: functional, cell-based; details: Homo sapiens;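 note: growth inhibition of human EHEB cells, read out with a cell viability assay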
Description: SANGER: Inhibition of human EHEB cell growth in a cell viability assay.

MHH-CALL-2 = test: cells; format: functional, cell-based; details: Homo sapiens;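 note: growth inhibition of the cell line, read out in a cell viability assay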
Description: SANGER: Inhibition of human MHH-CALL-2 cell growth in a cell viability assay.

MES-SA = test: cells; format: functional, cell-based, Homo sapiens; details: Homo sapiens, MES-SA;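 note: growth inhibition of human MES-SA cells, read out with a cell viability assay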
Description: SANGER: Inhibition of human MES-SA cell growth in a cell viability assay.

DMS-53 = test: cells; format: functional, cell-based, Homo sapiens; details: Homo sapiens, DMS-53;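 note: cell viability assay measuring growth inhibition of human DMS-53 cells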
Description: SANGER: Inhibition of human DMS-53 cell growth in a cell viability assay.

With `C=CCc1cccc(/C=N/NC(=O)CN2CCN(Cc3ccccc3)CC2)c1O` [PAC-1] the IC50 (LP-1) was > 2.56 µM, the IC50 (NCI-H1703) was > 2.56 µM and the IC50 (HCT-15) was 1.58 µM. The IC50 (GDM-1) was > 2.56 µM, the IC50 (MDA-MB-134-VI) was > 2.56 µM and the IC50 (NCI-H1618) was > 2.56 µM. For the same molecule, the IC50 (MC-CAR) was 1.53 µM, the IC50 (NCI-H838) was > 2.56 µM and the IC50 (TT) was > 2.56 µM. The IC50 (ST486) was 0.967 µM, the IC50 (MFE-296) was > 2.56 µM and the IC50 (MEL-JUSO) was > 2.56 µM. The IC50 (Raji) was 2.13 µM, the IC50 (SK-CO-1) was > 2.56 µM and the IC50 (CCF-STTG1) was > 2.56 µM. The IC50 (BL-70) was 1.97 µM, the IC50 (RL) was > 2.56 µM and the IC50 (IPC-298) was > 2.56 µM. For the same molecule, the IC50 (YT) was > 2.56 µM, the IC50 (PLC-PRF-5) was > 2.56 µM and the IC50 (RT-4) was > 2.56 µM. For the same molecule, the IC50 (HT55) was > 2.56 µM, the IC50 (BOKU) was > 2.56 µM and the IC50 (SNU-475) was > 2.56 µM. For the same molecule, the IC50 (TUR) was > 2.56 µM, the IC50 (KMS-12-PE) was > 2.56 µM and the IC50 (DV-90) was > 2.56 µM. For the same molecule, the IC50 (HCC1143) was > 2.56 µM, the IC50 (DG-75) was > 2.56 µM and the IC50 (EVSA-T) was > 2.56 µM. The IC50 (LC4-1) was > 2.56 µM, the IC50 (EW-7) was > 2.56 µM and the IC50 (NCI-H1734) was > 2.56 µM. For the same molecule, the IC50 (SNG-M) was 1.22 µM, the IC50 (G-361) was 1.19 µM and the IC50 (NCI-H2081) was > 2.56 µM. The IC50 (Caov-3 cell line) was > 2.56 µM, the IC50 (NCI-H460) was > 2.56 µM and the IC50 (OPM-2) was > 2.56 µM. The IC50 (ECC4) was > 2.56 µM, the IC50 (Daudi) was 0.947 µM and the IC50 (EHEB) was > 2.56 µM. The IC50 (MHH-CALL-2) was > 2.56 µM, the IC50 (MES-SA) was > 2.56 µM and the IC50 (DMS-53) was > 2.56 µM.
